Data set [1] in a line: PK values in HS-SY-II xenograft model (plasma concentration, LC/MS/MS). It counts as in vivo, mice. The following applies: oral twice daily for 7 days; 5 minutes before and 3 hours after the last dose. As for the experimental part: HS-SY-II cells were harvested during mid-log phase growth, and resuspended in Hank balanced salt solution with 50% Matrigel (BD Biosciences). Balb/C-nu mice (Charles River Laboratories Japan) received 1×10^7 cells (0.1 mL cell suspension) subcutaneously in the right flank. Mice carrying tumors of approximately 200 mm^3 (31 days after injection) were sorted into treatment groups with similar mean tumor volumes. Compound A or vehicle (0.5% MC+0.1% Tween-80 in water) was administered at the indicated doses on twice a day for 7 days by oral gavage. Each dose was delivered in a volume of 0.2 mL/20 g mouse (10 mL/kg), and adjusted for the last recorded weight of individual animals. Peripheral blood samples were collected at approximately 5 minutes before and 3 hours after the last dose from Compound A-treated mice. After obtaining plasma samples by centrifugation, the analysis for plasma concentrations of Compound A was conducted by the liquid chromatography-tandem mass spectrometry (LC/MS/MS) method. The UPLC system (Acquity, Waters) equipped with a mass spectrometer (Quattro premier, MICROMASS) was used for quantification of Compound A. The concentrations are plotted (n=5) in FIG. 7A. Each bar represents a mean of plasma concentration in each group.

In data set [2] the test system is H3K27me3 in HS-SY-II xenograft. The data set can be described thus: H3K27me3 ELISA of HS-SY-II xenograft tumors harvested on Day 28. It counts as in vivo, athymic nude mice. The settings on record: Day 28, 3 h after the last dose; second study. As for the experimental part: FIGS. 10A to 10C show mean in vivo tumor volumes for athymic nude mice bearing HS-SY-II xenografts. In a first study, mice were dosed with either vehicle (oral for 28 days or iv on Day 1 and Day 22), Compound A (oral: 125 mg/kg, 250 mg/kg, or 500 mg/kg for 28 days), or Doxorubicin (iv: 10 mg/kg, Day 1 and Day 22); tumor volumes were measured twice a week (FIGS. 10A and 10B). In a second study, mice were dosed with either vehicle (oral for 28 days), Compound A (oral: 250 mg/kg or 500 mg/kg for 28 days), Doxorubicin (iv: 10 mg/kg on Day 1 and Day 22), or a combination of Doxorubicin (iv: 10 mg/kg on Day 1 and Day 22) and Compound A (oral: 250 mg/kg for 28 days) (FIG. 10C). Tumors from animals of the second study were harvested on Day 28 (3 h after the last dose) and subjected to H3K27me3 analysis by ELISA (FIG. 10D) or IHC for the proliferation marker Ki67 (FIG. 10E).
For FIG. 10D, tumors were snap-frozen in liquid nitrogen. […] Histones were quantified using the BCA protein assay (23225, Pierce). […] Subsequently, the developed colors in the wells were measured using a plate spectrophotometer (SpectraMax 250, Molecular Devices) at 450 nm (reference wavelength 650 nm). The H3K27me3 levels were adjusted to total histone H3, and expressed as fold changes to vehicle control. […] Histones were extracted and quantified, and the levels of H3K27me3 were analyzed as described above. […]
For orientation: An ELISA detects its analyte on a solid surface through an enzyme-linked reagent.

For `CCN(c1cc(-c2ccc(CN3CCOCC3)cc2)cc(C(=O)NCc2c(C)cc(C)[nH]c2=O)c1C)C1CCOCC1` [Compound A], the plasma concentrations entry in data set [1] is “Dose dependent exposure”. Besides, the “H3K27me3 levels in tumors (fold change to vehicle control)” value in data set [2] is given as “significantly reduced”.

(Values after patent US20220218714A1, “METHOD OF TREATING CANCER” (Epizyme, Inc., priority 2013, published 2022).)
